Experimental data reported in patent US9024032B2, “Inhibitors of catechol O-methyl transferase and their use in the treatment of psychotic disorders” (Merck Sharp & Dohme Corp., priority 2010, dated 2015).
Where two headings read alike, the source gives them in different places.

Molecular target: T1, purified human COMT enzyme of the Val158 variant (membrane-bound MB-COMT) (Homo sapiens, UniProt P21964)
T1 construct: 6xHis or 10xHis (C)
T1 sequence (P21964 1-271): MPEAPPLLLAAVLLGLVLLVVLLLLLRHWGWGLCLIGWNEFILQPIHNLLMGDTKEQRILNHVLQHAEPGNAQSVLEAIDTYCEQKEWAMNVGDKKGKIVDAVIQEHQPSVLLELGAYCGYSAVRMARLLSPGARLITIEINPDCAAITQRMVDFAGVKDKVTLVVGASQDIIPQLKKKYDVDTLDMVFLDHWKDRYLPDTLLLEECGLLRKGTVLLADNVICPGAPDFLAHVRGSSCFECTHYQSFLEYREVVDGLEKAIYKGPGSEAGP
Experiment: MB-COMT inhibition, Esculetin or Fluorescence Polarization assay
Format: biochemical

[1] = Esculetin or Fluorescence Polarization assay, human Val158 variant, read-out: MB-COMT IC50-

Row | Compound | IC50 [1] [nM] | IC50 [nM]
1 | CC(O)c1cc(=O)c(O)cn1-c1cccc(-c2c(Cl)cnc3[nH]ccc23)c1 (single isomer, unassigned) [Example 13, 1-[3-(5-chloro-1H-pyrrolo[2,3-b]pyridin-4-yl)phenyl]-5-hydroxy-2-(1-hydroxyethyl)-pyridin-4(1H)-one] | 41 | 
2 | COc1ccc(-c2nc3cc(-n4ccc(=O)c(O)c4)ccc3[nH]2)cc1 [Example 2, 3-hydroxy-1-[2-(4-methoxyphenyl)-1H-benzimidazol-5-yl]pyridin-4(1H)-one] |  | 64
3 | Nc1cc(=O)c(O)cn1-c1cccc(-c2ccccc2)c1 [Example 3, 2-Amino-1-(biphenyl-3-yl)-5-hydroxypyridin-4(1H)-one] | 75 | 
4 | CNc1cc(=O)c(O)cn1-c1cccc(-c2ccccc2)c1 [Example 4, 1-(Biphenyl-3-yl)-5-hydroxy-2-(methylamino)pyridin-4(1H)-one] | 100 | 
5 | O=c1ccn(-c2cccc(-c3cccc4[nH]ncc34)n2)cc1O [Example 8, 3-Hydroxy-6′-(1H-indazol-4-yl)-4H-1,2′-bipyridin-4-one] | 21 | 
6 | O=c1ccn(-c2nccc(-c3c(Cl)cnc4[nH]ccc34)c2F)cc1O [Example 9, 4′-(5-chloro-1H-pyrrolo[2,3-b]pyridin-4-yl)-3′-fluoro-3-hydroxy-4H-1,2′-bipyridin-4-one] | 8 | 
7 | Cc1cc(=O)c(O)cn1-c1cccc2c1ncn2Cc1c(F)cccc1Cl [Example 10, 1-[1-(2-Chloro-6-fluorobenzyl)-1H-benzimidazol-4-yl]-5-hydroxy-2-methylpyridin-4(1H)-one] | 191 | 
8 | COc1ncc(F)cc1C(O)Cc1cc(=O)c(O)cn1-c1cccc(-c2ccccc2)c1 (centres unmarked) [Example 11, 1-biphenyl-3-yl-2-[2-(5-fluoro-2-methoxypyridin-3-yl)-2-hydroxyethyl]-5-hydroxypyridin-4(1H)-one] | 87 | 
9 | O=c1cc(C(O)C#Cc2ccccc2)n(-c2cccc(-c3c(Cl)cnc4[nH]ccc34)c2)cc1O (centres unmarked) [Example 12, 1-[3-(5-chloro-1H-pyrrolo[2,3-b]pyridin-4-yl)phenyl]-5-hydroxy-2-(1-hydroxy-3-phenylprop-2-yn-1-yl)pyridin-4(1H)-one] | 26 | 
10 | CC(O)c1cc(=O)c(O)cn1-c1cccc(-c2cncc3ccccc23)c1 (centres unmarked) [Example 14, 5-hydroxy-2-(1-hydroxyethyl)-1-[3-(isoquinolin-4-yl)phenyl]pyridin-4(1H)-one] | 226 | 
11 | O=c1cc(C(O)C(F)(F)F)n(-c2cccc(-c3cccc4ncccc34)c2)cc1O (centres unmarked) [Example 15, 5-hydroxy-1-[3-(quinolin-5-yl)phenyl]-2-(2,2,2-trifluoro-1-hydroxyethyl)pyridin-4(1H)-one] | 70 | 
